Assay results published in patent US20080200655A1, “Protein Formulations Containing Sorbitol” (Wyeth, priority 2007, published 2008).

What was measured:
[1] = cited from earlier work
MAB-002 = experiment: Five freeze-thaw cycles of MAB-002 in formulations with different polyols, HMW species formation; type: physicochemical; details: MAB-002 5 mg/ml, 10 mM histidine pH 6.0, various polyol concentrations
Procedure: This experiment compared mannitol to other polyols with different maximum solubilities with respect to their abilities to induce aggregation during freeze-thaw. A monoclonal antibody referred to as MAB-002 was dialyzed into different liquid formulations containing mannitol, galactitol, or sorbitol, respectively, at various concentrations. Each formulation also contained 10 mM histidine, pH 6.0. The final concentration of MAB-002 in each of the liquid formulations was 5 mg/ml. Each formulation was then subject to five cycles of freeze-thaw, and monitored for HMW species formation. Changes in the percentage of HMW species was plotted against the polyol concentrations in FIG. 3.

[2] = test system: four monoclonal antibodies (mAb2, mAb3, mAb4, mAb5), a cytokine and a fusion protein; experiment: Five freeze-thaw cycles of six proteins in 250 mM mannitol or sorbitol, HMW species formation; type: physicochemical; details: each protein 1 mg/ml, 10 mM histidine pH 6.0, 250 mM polyol
Procedure: Six different proteins including four different monoclonal antibodies (referred to as mAb2, mAb3, mAb4, and mAb5), a cytokine and a fusion protein were dialyzed into 10 mM histidine, pH 6.0, and 250 mM mannitol or sorbitol. The final concentration of each protein was 1 mg/ml. The formulations were then subject to five cycles of freeze-thaw as described above, and monitored for HMW species formation.

[3] = Sub ambient DSC scan of formulation during cooling and warming; type: physicochemical; details: formulation containing the polyol

Structure (SMILES) | Maximum solubility [1] | Induction of aggregation (change in percentage of HMW species) (MAB-002) | Protein aggregation (HMW species formation) [2] | Crystallization during cooling and warming [3]
OC[C@@H](O)[C@H](O)[C@H](O)[C@@H](O)CO [galactitol] | 180 mM | induced aggregation at low concentrations and at a faster rate compared to mannitol |  | 
OC[C@@H](O)[C@@H](O)[C@H](O)[C@H](O)CO [mannitol] | 1000 mM |  | considerably more protein aggregation | 
OC[C@@H](O)[C@@H](O)[C@H](O)[C@@H](O)CO [sorbitol] | 4500 mM | did not induce aggregation significantly compared to mannitol | suppresses aggregation of multiple proteins | no crystallization occurred
